Results from patent US11485747B2, “Diphenylmethane protective agent” (priority 2016, dated 2022).
Values after ≈ are worked out from the molar mass of the structure shown. Where a SMILES comes first, the peptide text is derived from it.

Assay: physchem
Assay type: physicochemical
Procedure: Peptide used as model: H-Gly-Gly-Gly-NH2
H-Gly-Gly-Gly-NH2 and H-Gly-Gly-Gly-NH-(TIPS2-Dpm) were synthesized, CPME (cyclopentyl methyl ether) was saturated with each of the compounds at 25° C., and the solubility was measured.

SMILES | increase in solubility | solubility [mM]
CC(C)[Si](OCCCCCCCCCCCOc1ccc(C(NC(=O)CNC(=O)CNC(=O)CN)c2ccc(OCCCCCCCCCCCO[Si](C(C)C)(C(C)C)C(C)C)cc2)cc1)(C(C)C)C(C)C [H-Gly-Gly-Gly-NH-(TIPS2-Dpm)] | ≥ 10,000 fold | 426 (≈ 443 mg/mL)
NCC(=O)NCC(=O)NCC(N)=O [H-Gly-Gly-Gly-NH2, reference compound] (H-Gly-Gly-Gly-NH2) | – | 0.039 (≈ 0.00734 mg/mL)
